Among the data in paper PMC10625055, “A novel Bruton's tyrosine kinase inhibitor JDB175 shows potent efficacy to suppress central nervous system lymphoma” (MedComm, 2023) are IC50 values, retold here.

This assay concerns the target Bruton's tyrosine kinase (BTK) (Homo sapiens, UniProt Q06187). As to the kind of experiment: radiometric kinase assay, recombinant human kinase. Type of assay: biochemical.

Sequence of Bruton's tyrosine kinase (BTK) (Q06187 2-659): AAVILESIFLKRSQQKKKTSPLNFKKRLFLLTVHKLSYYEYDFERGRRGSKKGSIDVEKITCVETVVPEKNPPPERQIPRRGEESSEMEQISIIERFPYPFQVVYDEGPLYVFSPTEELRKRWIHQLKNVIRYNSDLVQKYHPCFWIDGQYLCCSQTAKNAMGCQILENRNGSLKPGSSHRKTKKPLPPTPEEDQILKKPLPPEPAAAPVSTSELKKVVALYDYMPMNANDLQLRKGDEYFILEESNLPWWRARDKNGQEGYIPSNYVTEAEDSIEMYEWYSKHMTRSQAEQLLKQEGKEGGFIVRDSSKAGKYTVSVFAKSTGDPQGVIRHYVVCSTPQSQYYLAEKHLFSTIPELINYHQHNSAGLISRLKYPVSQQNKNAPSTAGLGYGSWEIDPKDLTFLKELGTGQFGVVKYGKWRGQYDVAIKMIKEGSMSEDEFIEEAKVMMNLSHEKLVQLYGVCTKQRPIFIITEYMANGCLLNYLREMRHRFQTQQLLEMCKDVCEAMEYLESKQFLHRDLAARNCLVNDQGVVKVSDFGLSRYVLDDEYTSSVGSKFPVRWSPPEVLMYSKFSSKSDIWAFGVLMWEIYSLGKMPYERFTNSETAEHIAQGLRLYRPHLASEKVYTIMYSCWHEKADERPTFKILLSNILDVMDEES

For `C=CC(=O)N1CCC[C@@H](c2nn(-c3ccc(Oc4cccc(F)c4F)cc3)c3cncc(F)c23)C1` [JDB175], the IC50 was determined as 2.1 nM.
